In US12264146B2, “Rho kinase inhibitor, method for preparing same and uses thereof” (BEIJING INCREASE INNOVATIVE DRUG CO., LTD., priority 2018, dated 2025):
Where a name gives a salt, the structure may show the parent alone.

Tests used:
[1] = system: subarachnoid hemorrhage in rats; test: Rat subarachnoid hemorrhage (SAH) model by intravascular puncture, Sugawara bleeding score; format: in vivo; parameters: dose or concentration left out as unconfirmed; settings: tail vein injection, 2 administrations 4 h apart, scored 24 h after first administration (Sugawara)
[2] = system: endothelial nitric oxide synthase (eNOS); test: Endothelial nitric oxide synthase (eNOS) in EA.Hy926 endothelial cells, detection kit; format: cell-based; settings: EA.Hy926 cell supernatant, 24 h
Protocol: (§1) Commercially available cytokine kits were used to detect the effects of the compounds of the present application on vascular endothelium-derived contracting factor endothelin, vascular endothelium-derived relaxing factor endothelial nitric oxide synthase, nitric oxide, and prostacyclin factor. The detection was performed according to the kit instructions. When testing the effect of the compound of the present application on cytokines, a normal control group, a fasudil hydrochloride group, and high-, medium- and low-dose groups of the compounds of the present application were set up for testing. The fasudil hydrochloride used in this test example was purchased from Beijing Sihuan Pharmaceutical Co., Ltd., with the SFDA approval number of H20173349. The EA.Hy926 cells used in this test example were purchased from Suzhou Beina Chuanglian Biotechnology Co., Ltd.
Detection conditions: EA.Hy926 cells were inoculated at 1×10^5 […] in a 96-well plate, 100 μL per well, and cultured adherently for 24 hours, then the test compound prepared with DMEM medium was added, the normal control group was added with an equal volume of DMEM medium, then the cells were cultured for 24 hours at 37° C., and then the cell supernatant was taken and placed in an EP tube, and centrifuged at 3000 r/min and 4° C. for 15 minutes, the resulting supernatant was transferred to a new EP tube, diluted 3 times, and detected according to the instruction of eNOs detection kit (purchased from Wuhan Elabscience Biotechnology Co., Ltd., Cat. No. AK0017OCT12013), and the detection results were shown in Table 4.

nitric oxide (NO) = test: Synthesis and secretion of nitric oxide (NO) in EA.Hy926 endothelial cells, NO detection kit; format: cell-based; settings: EA.Hy926 cell supernatant, 24 h
Protocol: as §1
EA.Hy926 cells were inoculated in a 24-well plate at 5×10^5 cells/mL, 400 μL per well, and cultured adherently for 18 hours, then the supernatant was discarded, the test compound prepared in DMEM medium was added, and an equal volume of DMEM medium was added in the normal control group, then the cells was cultured for 24 h in incubator, and then the cell supernatant was collected and detected according to the instructions of NO detection kit (purchased from Beyotime Institute of Biotechnology, Cat. No. 062617171017), and the detection results were shown in Table 5.

[3] = Toxicity test on endothelial cells EA.hy926, CCK-8 cell viability; format: cell-based; settings: human, 1000~0.32 μmol/L, 5-fold dilution, read-out: IC50 of Test compound (cytotoxicity on EA.hy926 cells)
How it was run: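 EA.hy926 cells (density 5×10^4) were precultured 24 h at 37 °C, 5% CO2, then exposed to compound in DMEM/10% FBS for 24 h, duplicates per concentration. CCK-8 was added for 2.5 h at 37 °C and A450 read. Viability was normalized to PBS normal control minus medium blank, and IC50 was taken from concentration–viability curves.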

Compound | Cerebral hemorrhage volume score (x ± s) [1] | expression of endothelial nitric oxide synthase in endothelial cells: Detection result of test compound at low dose (0.4 μM) [2] [pg/mL] | expression of endothelial nitric oxide synthase in endothelial cells: Detection result of test compound at medium dose (2 μM) [2] [pg/mL] | expression of endothelial nitric oxide synthase in endothelial cells: Detection result of test compound at high dose (10 μM) [2] [pg/mL] | nitric oxide secretion in endothelial cells: Detection result of test compound at low dose (0.4 μM) (nitric oxide (NO)) [μm] | nitric oxide secretion in endothelial cells: Detection result of test compound at medium dose (2 μM) (nitric oxide (NO)) [μm] | nitric oxide secretion in endothelial cells: Detection result of test compound at high dose (10 μM) (nitric oxide (NO)) [μm] | IC50 at 24 h [3] [µM]
CC[C@@H]1CNCCCN1S(=O)(=O)c1cccc2c(OC)nccc12 [Compound R-YK1610, (R)-5-((2-ethyl-1,4-diazacycloheptan-1-yl)sulfonyl)-1-methoxyisoquinoline] | 12.83 ± 2.05 | 2632.05 ± 235.87 | 2397.93 ± 280.08 | 2329.68 ± 263.98 | 0.997 ± 0.057 | 1.068 ± 0.032 | 1.121 ± 0.006 | 169
CCCC[C@@H]1CNCCCN1S(=O)(=O)c1cccc2c(O)nccc12 [Compound R-YK1611, (R)-5-((2-butyl-1,4-diazacycloheptan-1-yl)sulfonyl)isoquinolin-1-ol] | 12.41 ± 2.03 | 2652.53 ± 279.27 | 2291.59 ± 253.56 | 2195.70 ± 187.16 | 1.095 ± 0.095 | 1.109 ± 0.087 | 1.125 ± 0.016 | 284
COc1nccc2c(S(=O)(=O)N3CCCNC[C@H]3CCC(C)C)cccc12 [Compound R-YK1612, (R)-5-((2-isopentyl-1,4-diazacycloheptan-1-yl)sulfonyl)-1-methoxyisoquinoline] | 13.05 ± 1.96 | 2776.58 ± 261.27 | 2456.67 ± 226.85 | 2286.671 ± 195.06 | 0.960 ± 0.134 | 1.021 ± 0.006 | 1.114 ± 0.006 | 176
O=S(=O)(c1cccc2cnccc12)N1CCCNCC1 [Fasudil hydrochloride, reference compound] | 10.25 ± 3.24 | 2810.61 ± 13.02 | 2648.66 ± 9.59 | 2636.14 ± 188.26 | 1.131 ± 0.045 | 1.356 ± 0.045 | 1.450 ± 0.000 | 75.7
